# Test system: SKOV3 tumor xenografts (human ovarian carcinoma)
# Test: Growth of SKOV3 tumor xenografts in SCID mice (tumor growth inhibition)
# Format: in vivo
# Conditions: PO, compared to vehicle treated mice
# Procedure: Female SCID mice were implanted subcutaneously with 5×10^6 SKOV3 cells (human ovarian carcinoma). When the tumor volume reached 300-400 mm^3, mice were block randomized to different treatment groups (n=8 mice/group). Mice received the AKT inhibitor, Compound C as the free base, at 10 or 30 mg/kg, once daily (SID) for 21 days in 20% PEG-400, 1% DMSO in water. The VEGFR inhibitor, Compound A as the monohydrochloride salt, was administered at 100 mg/kg, twice/day (BID) for 21 days either alone or in combination with the AKT inhibitor. Mice were weighed and tumors measured by calipers twice weekly. Tumor volumes were calculated using the formula: tumor volume=(Length×Width^2)/2. The percentage of tumor growth inhibition was calculated on each day of tumor measurement using the formula: 100×[1−(average growth of the compound-treated tumors/average growth of vehicle-treated control tumors)]. Data is plotted as mean±sem for tumor volume for each group.
SMILES,"Tumor Growth Inhibition (Compound C (free base) 10 mg/kg, SID x21 d, 10 mg/kg) [%]","Tumor Growth Inhibition (Compound C (free base) 30 mg/kg, SID x21 d, 30 mg/kg) [%]","Tumor Growth Inhibition (Compound A (monohydrochloride salt) 100 mg/kg, BID x21 d, 100 mg/kg) [%]"
"Cn1ncc(Cl)c1-c1cc(C(=O)N[C@H](CN)Cc2ccc(F)c(F)c2)oc1Cl [Compound C, N-{(1S)-2-amino-1-[(3,4-difluorophenyl)methyl]ethyl}-5-chloro-4-(4-chloro-1-methyl-1H-pyrazol-5-yl)-2-furancarboxamide]",86,67,–
"Cc1ccc(Nc2nccc(N(C)c3ccc4c(C)n(C)nc4c3)n2)cc1S(N)(=O)=O [Compound A, 5-[[4-[(2,3-dimethyl-2H-indazol-6-yl)methylamino]-2-pyrimidinyl]amino]-2-methylbenzenesulfonamide, reference compound]",–,–,47
